Experimental findings from ChEMBL document CHEMBL1201862, “PubChem BioAssay data set” (2004) are described below.

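48-hour exposure; five concentrations; linearly interpolated endpoints. At the GI50, growth is halved.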 Activity calls are given as the source filed them. No stated cut-off is given here; in the data, active = GI50 up to about 1.1 µM and inactive = higher.

Test systems include UACC-62; SN12C; HOP-92; RPMI-8226; SNB-19; ACHN; 786-0; TK-10; HOP-62; SF-295; SK-MEL-5; CAKI-1; SF-268; HCC 2998.
Test in all cases: NCI-60 cell line screen, 48 h

For `COc1ccc2nc(-c3ccccn3)cc(O)c2c1`, the GI50 in the experiment on UACC-62 is 32.8 µM (inactive); in the experiment on SN12C, 47 µM (inactive); with HOP-92, 43.9 µM (inactive); with RPMI-8226 it was 37.8 µM (inactive); in the experiment on SNB-19 it was > 100 µM (inactive); in the experiment with ACHN, 92.5 µM (inactive). Besides, the GI50 with 786-0 was 90.2 µM (inactive); with TK-10 it was 96.4 µM (inactive); in the experiment with HOP-62 it was > 100 µM (inactive).

`CC(C)C/C(CC(=O)CCC(=O)Nc1ccccc1[N+](=O)[O-])=N\NC(=O)c1cc2ccccc2cc1O`: the GI50 is 43.5 µM (inactive) in the experiment with SF-295; 28.1 µM (inactive) in the experiment on SK-MEL-5; 25.7 µM (inactive) in the experiment on UACC-62; 50.6 µM (inactive) in the experiment with SN12C; 64 µM (inactive) in the experiment on HOP-92; 50 µM (inactive) in the experiment with RPMI-8226. Moreover, the GI50 in the experiment with SNB-19 was 45.5 µM (inactive); in the experiment with ACHN, 34.1 µM (inactive); in the experiment with CAKI-1 it was 68.2 µM (inactive); in the experiment with 786-0, 36.8 µM (inactive); with SF-268 it was 38 µM (inactive); in the experiment with TK-10, 51.2 µM (inactive). Further, the GI50 in the experiment on HOP-62 is 57.3 µM (inactive); with HCC 2998, 36.6 µM (inactive).

For the compound `C/C=C(\CCOS(=O)(=O)c1ccc(C)cc1)[Si](C)(C)C`, the GI50 in the experiment with SF-295, in the experiment on SK-MEL-5, in the experiment with UACC-62, in the experiment on SN12C, with HOP-92 and in the experiment with RPMI-8226 was > 100 µM (inactive) in each case. Besides, the GI50 in the experiment with SNB-19, with ACHN, in the experiment with 786-0, in the experiment on SF-268, in the experiment on TK-10 and with HCC 2998 was > 100 µM (inactive) throughout.

`O=c1c2ccccc2nc(-c2ccccc2)n1NC(=S)Nc1ccc(Cl)cc1`: the GI50 in the experiment with SF-295 was > 100 µM (inactive); with SK-MEL-5, 36.9 µM (inactive); in the experiment on UACC-62 it was 55.2 µM (inactive); with SN12C, > 100 µM (inactive); with HOP-92, > 100 µM (inactive); in the experiment with RPMI-8226 it was 69.7 µM (inactive). The GI50 was 77.1 µM (inactive) in the experiment on ACHN; > 100 µM (inactive) with CAKI-1; > 100 µM (inactive) in the experiment on 786-0; > 100 µM (inactive) in the experiment with SF-268; > 100 µM (inactive) in the experiment on TK-10; > 100 µM (inactive) in the experiment with HOP-62.

Consider `CCOC(=O)C1C(c2ccc([N+](=O)[O-])cc2)NC(c2ccc([N+](=O)[O-])cc2)C(C(=O)OC)S1(=O)=O` (centres undefined), for which the GI50 in the experiment on SF-295, with UACC-62, with SN12C, in the experiment on RPMI-8226, in the experiment on SNB-19 and with ACHN was > 100 µM (inactive) throughout. For the same compound, the GI50 in the experiment with CAKI-1, in the experiment with 786-0, with SF-268, with TK-10, in the experiment with HOP-62 and with HCC 2998 was > 100 µM (inactive) each time.

Take `COc1ccc(C2CC(c3cc(C)ccc3O)=NC(N)=N2)cc1` (centres undefined): the GI50 in the experiment on SF-295, with UACC-62, with SN12C, with HOP-92, in the experiment with RPMI-8226 and in the experiment on SNB-19 was > 100 µM (inactive) each time. Besides, the GI50 in the experiment on ACHN, in the experiment on CAKI-1, in the experiment on 786-0, in the experiment on SF-268, in the experiment with TK-10 and with HOP-62 was > 100 µM (inactive) in each case. The GI50 with HCC 2998 was > 100 µM (inactive).

Consider `O=C(CSc1nnc(-c2ccc(/N=C\c3ccc(Cl)cc3)cc2)o1)Nc1ccc(Cl)cc1`, for which the GI50 in the experiment with SF-295 was > 100 µM (inactive); in the experiment with SK-MEL-5, > 100 µM (inactive); with UACC-62, > 100 µM (inactive); in the experiment on SN12C, > 100 µM (inactive); with RPMI-8226 it was 41.7 µM (inactive); in the experiment with SNB-19 it was > 100 µM (inactive). Further, the GI50 in the experiment on ACHN, in the experiment on 786-0, in the experiment with SF-268, with TK-10 and in the experiment with HOP-62 was > 100 µM (inactive) throughout.

As for `CCOC12SC(Nc3ccc(C)cc3)=NN1C(=S)N(C)N=C2C` (centres undefined), the GI50 with SF-295, with SK-MEL-5, in the experiment with UACC-62, with SN12C, in the experiment on HOP-92 and in the experiment with RPMI-8226 was > 100 µM (inactive) throughout. Besides, the GI50 with SNB-19, with ACHN, in the experiment with 786-0, in the experiment with SF-268 and in the experiment with HOP-62 was > 100 µM (inactive) throughout.

For `Cc1ccc([S+]([O-])C(C)C(Cl)c2ccccc2)cc1` (centres undefined), the GI50 in the experiment on SF-295 was 86.7 µM (inactive); in the experiment on SK-MEL-5 it was 43.6 µM (inactive); with UACC-62, 80 µM (inactive); with SN12C it was > 100 µM (inactive); in the experiment on HOP-92, > 100 µM (inactive); in the experiment with RPMI-8226 it was 35.9 µM (inactive). Besides, the GI50 with ACHN, in the experiment on CAKI-1, in the experiment with 786-0, with SF-268, in the experiment with TK-10 and in the experiment with HOP-62 was > 100 µM (inactive) in each case. Further, the GI50 in the experiment on HCC 2998 is > 100 µM (inactive).

In the case of `N#Cc1c2ccccc2cn1-c1ccc(F)cc1`, the GI50 is 23.5 µM (inactive) in the experiment with SF-295; > 10 µM (inactive) in the experiment on SK-MEL-5; 30 µM (inactive) in the experiment with UACC-62; 20.6 µM (inactive) with HOP-92; 22 µM (inactive) in the experiment with RPMI-8226; 22.4 µM (inactive) in the experiment on SNB-19. The GI50 was 27.2 µM (inactive) with ACHN; 33 µM (inactive) in the experiment on CAKI-1; 30.3 µM (inactive) with 786-0; 24.5 µM (inactive) with SF-268; 29 µM (inactive) in the experiment on TK-10; 23 µM (inactive) in the experiment on HOP-62. In the experiment with HCC 2998, the GI50 was 43.9 µM (inactive).

For the compound `CSc1nc(SC)c2c(C(N)=S)n[nH]c2n1`, the GI50 in the experiment with SF-295 was 6 µM (inactive); with SK-MEL-5, 17.9 µM (inactive); in the experiment with UACC-62 it was 21.8 µM (inactive); with SN12C it was 36.3 µM (inactive); in the experiment on HOP-92, 25.2 µM (inactive); in the experiment on RPMI-8226, 23.1 µM (inactive). Besides, the GI50 is 27.1 µM (inactive) with SNB-19; 24 µM (inactive) in the experiment on ACHN; 21.1 µM (inactive) in the experiment with CAKI-1; 28.4 µM (inactive) in the experiment on 786-0; 31.2 µM (inactive) with SF-268; 23.3 µM (inactive) in the experiment on TK-10. In addition, in the experiment on HOP-62, the GI50 was 23.2 µM (inactive).

`CCOC(=O)/C(=C\c1ccc(N(CCC#N)CCC#N)cc1)NC(=O)c1cc([N+](=O)[O-])ccc1Cl`: the GI50 with SF-295 was > 100 µM (inactive); in the experiment with SK-MEL-5, > 100 µM (inactive); in the experiment with UACC-62, > 100 µM (inactive); in the experiment with SN12C, > 100 µM (inactive); with RPMI-8226 it was 56.6 µM (inactive); in the experiment on SNB-19, > 100 µM (inactive). The GI50 in the experiment with ACHN, in the experiment with CAKI-1, with 786-0, in the experiment with SF-268, with TK-10 and in the experiment on HOP-62 was > 100 µM (inactive) throughout. Also, the GI50 in the experiment on HCC 2998 was > 100 µM (inactive).

In the case of `Cc1cc2c(c3nocc13)C(=O)c1ccccc1C2=O`, the GI50 in the experiment on SF-295 is > 100 µM (inactive); in the experiment with SK-MEL-5, > 100 µM (inactive); with UACC-62 it was > 100 µM (inactive); in the experiment on SN12C, > 100 µM (inactive); in the experiment on HOP-92 it was 16.2 µM (inactive); in the experiment on RPMI-8226, > 100 µM (inactive). Further, the GI50 with SNB-19, in the experiment on ACHN, in the experiment on CAKI-1, in the experiment on 786-0, with SF-268 and with TK-10 was > 100 µM (inactive) throughout. The GI50 in the experiment with HOP-62 and in the experiment on HCC 2998 was > 100 µM (inactive) each time.

Turning to `N#CC12CCC1C1CCCCC12N1CCSCC1` (centres undefined), the GI50 was > 100 µM (inactive) in the experiment with SF-295; > 100 µM (inactive) in the experiment on UACC-62; > 100 µM (inactive) in the experiment on SN12C; > 100 µM (inactive) in the experiment on HOP-92; 51.1 µM (inactive) in the experiment with RPMI-8226; > 100 µM (inactive) in the experiment with SNB-19. Further, the GI50 in the experiment with ACHN, with CAKI-1, in the experiment on 786-0, with HOP-62 and in the experiment with HCC 2998 was > 100 µM (inactive) throughout.

On to `[N-]=[N+]=NC1C(Br)C(=O)NC(=O)N1[C@H]1C[C@H](O)[C@@H](CO)O1` (some centres undefined), for which the GI50 with SF-295, with UACC-62, in the experiment with SN12C, in the experiment with HOP-92, in the experiment with SNB-19 and in the experiment with ACHN was > 100 µM (inactive) throughout. For the same compound, the GI50 in the experiment on 786-0, in the experiment with SF-268, in the experiment with TK-10, in the experiment with HOP-62 and with HCC 2998 was > 100 µM (inactive) each time.

For `CC[S+](C)c1ccc(-c2c3nc(c(-c4ccc([S+](C)CC)cc4)c4ccc([nH]4)c(-c4ccc([S+](C)CC)cc4)c4nc(c(-c5ccc([S+](C)CC)cc5)c5ccc2[nH]5)C=C4)C=C3)cc1.[O-][Cl+3]([O-])([O-])[O-].[O-][Cl+3]([O-])([O-])[O-].[O-][Cl+3]([O-])([O-])[O-].[O-][Cl+3]([O-])([O-])[O-]` (centres undefined), the GI50 in the experiment on SF-295 is 28.7 µM (inactive); in the experiment with SK-MEL-5, 24.7 µM (inactive); in the experiment with UACC-62 it was 12.9 µM (inactive); in the experiment on SN12C it was 16.8 µM (inactive); in the experiment on HOP-92, 0.649 µM (active); in the experiment on RPMI-8226 it was 7.78 µM (inactive). For the same compound, the GI50 in the experiment with SNB-19 is 93.8 µM (inactive); in the experiment with ACHN, 29.6 µM (inactive); in the experiment on CAKI-1 it was 39.1 µM (inactive); in the experiment on 786-0 it was 27.7 µM (inactive); in the experiment on SF-268, 21.8 µM (inactive); in the experiment on HOP-62, 30.1 µM (inactive).
